Experiments:
Murine astroglia = test: Cholesterol efflux from astrocytes; format: cell-based, mouse; settings: basal efflux, standard deviation in parentheses, * p<0.05
Protocol: Murine astroglia were obtained from postnatal day 1 pups. Briefly, pups were decapitated, their brains removed, and the cerebral cortices prepared as described previously (45), except that astrocyte plating media was used (Dulbecco's modified eagle media [DMEM] containing 4 mg/ml glucose, 5% FBS and 5% HS [GibcoBRL or Irvine Scientific], 100 U/ml penecillin/100 μg/ml streptomycin, 25 mM HEPES, and 2-4 mM glutamine). Glia were grown in T75 flasks at a density of approximately 2 brains per flask. Cells were fed once weekly by complete media exchange in maintenance media (DMEM containing 4.5 mg/ml glucose, 10% FBS, 100 U/ml penecillin/100 μg/ml streptomycin, 25 mM HEPES, and 6 mM glutamine). By visual inspection, these cultures were nearly entirely astroglial with <1% contamination with microglia. After 7-14 days in vitro, cells were collected by trypsinization, counted in a hemacytometer, and plated into 6-well plates at 50-100,000 cells per well in maintenance media. […]
Cholesterol efflux assays were performed as described elsewhere (24) with some modifications. […] Two hundred microliters of the culture media supernatant and 200 μl of the cell extract were counted for tritium in 2 ml Packard Ultima Gold Scint. […] Efflux is expressed as percent of the total radiolabeled cholesterol pool present in the cultures.

ABCG1 = ABCG1 gene expression in primary astrocyte cultures (QRT-PCR); format: cell-based, mouse; settings: Astrocytes
Protocol: (§1) Total RNA was isolated from tissue and cell culture samples using TRIzol reagent (GibcoBRL). Briefly, tissue samples were thawed directly in 1 ml Trizol/50 mg tissue and homogenized with a polytron. To facilitate recovery of nucleic acid, 100 μg glycogen (Ambion) was added. Cultured cells were lysed in 1 ml Trizol containing 100 μg glycogen per well. Samples were then extracted in chloroform and spun at 4° C. at 11,000×g for 15 min. The aqueous phase was collected and the RNA was precipitated with the addition of isopropanol. The samples were then spun at 11,000×g at 4° C. for 15 min, the pellet washed in 75% ethanol, dried, and dissolved in water. Samples were stored at −70° C. until use.
(§2) Total RNA samples were diluted to 100 μg/ml and treated with 40 units/ml […] DNAse-I (Ambion) for 30 min at 37° C. followed by inactivation at 75° C. for 5 min. Samples were quantitated by spectrophotometry or with the RiboGreen assay (Molecular Probes) and diluted to a concentration of 10 ng/μl. […] In this system, the probe is degraded by Taq polymerase during the amplification phase, releasing the fluorescent tag from its quenched state; amplification data is expressed as the number of PCR cycles required to elevate the fluorescence signal beyond a threshold intensity level. […]

ABCA1 [1] = test: ABCA1 gene expression in primary neuron cultures (QRT-PCR); format: cell-based, mouse; settings: Neurons
Protocol: as §1, §2

ABCA1 [2] = test: ABCA1 gene expression in primary astrocyte cultures (QRT-PCR); format: cell-based, mouse; settings: Astrocytes
Protocol: as §1, §2

SREBP-1c = SREBP-1c gene expression in primary astrocyte cultures (QRT-PCR); format: cell-based, mouse; settings: Astrocytes
Protocol: as §1, §2

Cortical neurons = test: Neurite outgrowth in cortical neurons; format: cell-based, rat; settings: CR neurons, 24 hours, standard error of triplicate wells in parentheses
Protocol: Cortical neurons: Cortex from gestational day 18-20 rat embryos were collected in HBSS on ice. Cells were dissociated as described for hippocampal neurons. Cells were pelted (200 g, 5 mins and resuspended in medium as described for hippocampal cells. Cells were plated at 6000 cells/well and cultured for 24 hours.
(§3) The test compound was solubilised in DMSO and added to culture medium at time of cell plating at a dilution of 1:1000. Vehicle only (1:1000) was added to culture medium of untreated controls. Cells were fixed with 4% paraformaldehyde for 1 hour on ice, washed with PBS and stained using Coomassie. Assays were quantified using a KS300 image analysis system (Imaging Associates, UK). For each cell measured, the length from the edge of the cell to the end of the longest neurite was measured for 100 cells/well for each treatment in triplicate. All data are means and SEM pooled from three independent experiments. Results are expressed as a percentage of the length of neurites of cells treated with vehicle alone.

Hippocampal neurons = test: Neurite outgrowth in hippocampal neurons; format: cell-based, rat; settings: HC neurons, 48 hours, SEM in parentheses
Protocol: Hippocampal neurons: The hippocampi of gestational day 18 rat embryos were dissected out, incubated in trypsin (0.08%, 30 min at 37° C.) and dissociated mechanically (16). Hippocampal cells were resuspended in neurobasal medium supplemented with B27, anti-oxidants, 1 mM glutamine, 25 μM glutamate, 1 mM pyruvate. For outgrowth assays, cells were plated at a density of 3000 cells/well into 96 well dishes that had previously been coated with poly-D-lysine followed by 10% FCS and cultured for 48 hours.
as §3

Row | Structure (SMILES) | Cholesterol efflux as a percentage of total [3H] cholesterol (Murine astroglia) | ABCG1 expression normalized to vehicle-treated group (fold induction) (ABCG1) | ABCA1 expression normalized to vehicle-treated group (fold induction) (ABCA1 [1]) | ABCA1 expression normalized to vehicle-treated group (fold induction) (ABCA1 [2]) | SREBP-1c expression normalized to vehicle-treated group (fold induction) (SREBP-1c) | length of longest neurite, percentage of cells treated with vehicle alone (Cortical neurons; 0.3 μm test compound) | length of longest neurite, percentage of cells treated with vehicle alone (Cortical neurons; 1.0 μm test compound) | length of longest neurite, percentage of cells treated with vehicle alone (Cortical neurons; 3.0 μm test compound) | length of longest neurite, percentage of cells treated with vehicle alone (Cortical neurons; 10.0 μm test compound) | length of longest neurite, percentage of cells treated with vehicle alone (Hippocampal neurons; 0.3 μm test compound) | length of longest neurite, percentage of cells treated with vehicle alone (Hippocampal neurons; 1.0 μm test compound) | length of longest neurite, percentage of cells treated with vehicle alone (Hippocampal neurons; 3.0 μm test compound) | length of longest neurite, percentage of cells treated with vehicle alone (Hippocampal neurons; 10.0 μm test compound)
1 | O=C(O)Cc1cccc(OCCCN(Cc2cccc(C(F)(F)F)c2Cl)CC(c2ccccc2)c2ccccc2)c1 [Example 1, 2-(3-{3-[[2-Chloro-3-(trifluoromethyl)benzyl](2,2-diphenylethyl)amino]propoxy}-phenyl)acetic Acid] | 4.722 (0.783)* % | 14.9 | 2.8 | 11.8 | 13.9 | 105 (1.79) % | 110 (2.4) % | 123.6 (6.6) % | 126.23 (2.5) % | 109 (6.25) % | 113 (5.05) % | 120 (7.75) % | 147 (11.8) %
2 | O=S(=O)(c1ccccc1)N(CC(F)(F)F)c1ccc(C(O)(C(F)(F)F)C(F)(F)F)cc1 [Example T0901317, N-(2,2,2-trifluoroethyl)-N-[4-(2,2,2-trifluoro-1-hydroxy-1-trifluoromethyl-ethyl)-phenyl]-benzenesulfonamide] | 4.370 (0.561)* % | 12.5 | 3.0 | 18.4 | 20.2 | – | – | – | – | – | – | – | –

— US20050171084A1, “Methods of treatment with lxr modulators” (priority 2002, published 2005)
